Values quoted from earlier work as cited in patent publication US20070059354A1 (priority 2005, published 2007).

NC(=O)N1c2ccccc2CC(=O)c2ccccc21 [Oxcarbazepine]
solubility in water: practically insoluble in water
